Measured values: patent US20070021456A1, “Aminobenzimidazole derivatives” (MERCK PATENT GMBH, priority 2003, published 2007)
pIC50: −log10 of the molar value.

Target: Tie-2 kinase (Homo sapiens, UniProt Q02763)
Assay: TIE-2 kinase flashplate assay (phosphorylation of poly(Glu, Tyr) with 33P-ATP)
Type: biochemical
Settings: read-out: Inhibition of TIE-2 IC50
Protocol: The assay determines the inhibiting activity of the substances to be tested in the phosphorylation of the substrate poly(Glu, Tyr) by Tie-2 kinase in the presence of radioactive ^33P-ATP. The phosphorylated substrate binds to the surface of a “flashplate” microtitre plate during the incubation time. After removal of the reaction mixture, the microtitre plate is washed a number of times and the radioactivity on its surface is subsequently measured. An inhibiting effect of the substances to be measured results in lower radioactivity compared with an undisturbed enzymatic reaction.

Chain of Tie-2 kinase (Q02763 23-1124): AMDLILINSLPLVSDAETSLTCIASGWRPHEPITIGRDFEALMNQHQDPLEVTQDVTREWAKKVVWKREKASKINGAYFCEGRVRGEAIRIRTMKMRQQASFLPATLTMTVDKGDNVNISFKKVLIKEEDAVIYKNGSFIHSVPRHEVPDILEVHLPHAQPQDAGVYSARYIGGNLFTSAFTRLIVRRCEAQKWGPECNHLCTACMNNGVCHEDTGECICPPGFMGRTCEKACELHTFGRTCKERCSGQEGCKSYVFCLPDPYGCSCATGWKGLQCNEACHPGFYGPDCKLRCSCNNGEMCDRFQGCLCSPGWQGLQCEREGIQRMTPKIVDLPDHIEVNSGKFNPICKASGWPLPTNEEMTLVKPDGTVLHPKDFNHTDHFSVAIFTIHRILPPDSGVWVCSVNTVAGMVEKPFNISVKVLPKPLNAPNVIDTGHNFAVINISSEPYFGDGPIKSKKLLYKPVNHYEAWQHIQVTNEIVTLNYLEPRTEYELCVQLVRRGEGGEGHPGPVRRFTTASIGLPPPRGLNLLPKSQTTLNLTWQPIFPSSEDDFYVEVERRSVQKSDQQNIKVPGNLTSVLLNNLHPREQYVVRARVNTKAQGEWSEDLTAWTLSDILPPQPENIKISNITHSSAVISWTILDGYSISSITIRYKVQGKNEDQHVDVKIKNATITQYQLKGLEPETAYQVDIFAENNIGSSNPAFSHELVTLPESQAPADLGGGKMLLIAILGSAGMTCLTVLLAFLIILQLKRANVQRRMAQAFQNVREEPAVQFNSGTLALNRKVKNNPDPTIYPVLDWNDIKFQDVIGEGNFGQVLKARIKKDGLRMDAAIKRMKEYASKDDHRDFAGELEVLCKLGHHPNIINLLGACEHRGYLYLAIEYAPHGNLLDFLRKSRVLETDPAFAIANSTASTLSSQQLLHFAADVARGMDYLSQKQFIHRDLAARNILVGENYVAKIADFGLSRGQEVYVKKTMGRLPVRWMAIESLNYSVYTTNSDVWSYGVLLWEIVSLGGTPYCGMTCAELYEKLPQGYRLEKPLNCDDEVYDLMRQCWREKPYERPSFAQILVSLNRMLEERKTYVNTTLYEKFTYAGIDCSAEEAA

pIC50	SMILES
6.66	FC(F)(F)c1cc(Br)c2nc(Nc3ccc(Oc4ccc5nsnc5c4)cc3)[nH]c2c1 [A1, [4-(benzo-1,2,5-thiadiazol-5-yloxy)phenyl](4-bromo-6-trifluoromethyl-1H-benzimidazol-2-yl)amine]
6.60	FC(F)(F)c1cc(Cl)c2nc(Nc3ccc(Oc4ccc5nsnc5c4)cc3)[nH]c2c1 [No. 2]
6.41	Cc1cc(Oc2ccc(Nc3nc4c(Br)cc(C(F)(F)F)cc4[nH]3)cc2)c(C)c2sc(N)nc12 [No. 31]
6.49	Nc1nc2ccc(Oc3ccc(Nc4nc5cc(C(F)(F)F)cc(Cl)c5[nH]4)cc3)cc2s1 [No. 38]
